Results taken from patent US5677296A, “Carbamic acid derivatives of substituted dibenzoxazepine compounds, pharmaceutical compositions and methods of use” (G.D. Searle & Co., priority 1995, dated 1997).

Legend:
[1] = test system: phenylbenzoquinone (PBQ)-induced writhing in mice; assay: Writhing Assay (PBQ-induced writhing in mice, analgesic activity); format: in vivo, mouse (Charles River male albino mice); conditions: i.g.; for Writhing assay: number of mice out of eight or ten in which test compound produced analgesia: 30 mpk, 30 min before PBQ i.p., fraction of mice
From the text: The Writhing Assay is one of the most widely-used experimental procedures for measuring the analgesic activity of different narcotic and nonnarcotic analgesic agents, and involves the continuous, chemically-induced pain of visceral origin to an animal, such as a mouse or rat. [Gyires et al., Arch. int. Pharmacodyn, 267, 131-140 (1984); C. Vander Wende et al., Fed. Proc., 15, 494 (1956); Koster et al., Fed. Proc., 18, 412 (1959); and Witken et al., J. Pharmacol. exp. Ther., 133, 400-408 (1961).] Chemicals which may be used to induce this pain include phenylbenzoquinone (PBQ) and acetic acid. As a result of the chemical irritation to the animal, a characteristic stretching and writhing of the animal (dorsiflexion of the animal's back, extension of its hindlimbs and the strong contraction of its abdominal musculature) will generally occur. […] Drugs which reduce the number of writhes of the animal appear to restore the normal nociceptive threshold of the animal.
Charles River male albino mice, weighing 20 to 30 grams, were used in this assay.
Thirty minutes after intragastric administration to ten mice of 30 mg per kilogram of body weight of a compound of the present invention ("test compound"), […] per 10 g of body weight of a 0.025% w/v solution of PBQ was injected intraperitoneally into each mouse. Ten mice which were given saline in place of a test compound of the invention were used as a control group.
Five minutes later, each mouse was individually placed into a glass beaker for observation, and the number of writhes occurring during the following ten-minute period was counted.
A test compound was considered to have produced analgesia in a mouse if, in accordance with the conditions set forth above, and under the test criteria employed for this assay, after the administration of 30 mg per kilogram of body weight of a compound of the present invention to the mouse, the number of writhes elicited by a mouse injected with PBQ was equal to, or less than, one-half the median number of writhes recorded for the saline-treated control group of mice that day, as described by Taber in "Predictive Value of Analgesic Assays in Mice and Rats," Advances in Biochemical Psychopharmacology, 8, 191 (1974).
The results for the particular compounds of the present invention analyzed in this assay, and discussed in the examples identified below which correspond thereto, are presented in Table 1 hereinbelow as fractions under the heading "WRITHING ASSAY." The fractions indicate the number of mice out of eight or ten in which a test compound produced analgesia.
The standard initial screening dose of a test compound employed in this assay was 30 mpk […]. Generally, if this initial screening dose of the test compound produced analgesia in seven out of ten mice, then the effect of additional doses of the test compound on the writhing response was evaluated, and then the ED50 dose was generally calculated. (The slopes of the dose-response curves for all test compounds analyzed were compared as described by Tallarida and Murray, Manual of Pharmacologic Calculations, Page 11 (Springer Verlag, New York, 1981)).
All ED50 doses calculated are also presented in Table 1 hereinbelow under the heading "WRITHING ASSAY," but as whole numbers.

[2] = test system: prostaglandin E2-induced contractions of guinea pig ileum; assay: Prostaglandin (PGE) Antagonism Assay (inhibition of prostaglandin E2-induced contractions of segments of guinea pig ileum); conditions: test compound 3 × 10^-6 M, 30 min incubation; dose ratio of PGE2 EC50 values; average where more than one determined
Procedure: (b) Prostaglandin (PGE) Antagonism Assay
In order to determine the effectiveness of several of the compounds of the present invention ("test compounds") as prostaglandin E2 antagonists,a prostaglandin antagonism assay was conducted, as described below, to determine the ability of these compounds to inhibit prostaglandin E2 -induced contractions of segments of guinea pig ileum.
Male albino guinea pigs weighing 200 to 500 grams were sacrificed by cervical dislocation. The ilea were then quickly removed from the guinea pigs and placed in a modified Tyrode solution, a solution which is known to those skilled in the art, containing one-half of the usual amount of magnesium ions.
Segments of ileum about 2 cm long were then cut and mounted in a 10 mL tissue bath containing the modified Tyrode solution. The solution was maintained at 37° C. and aerated with a gaseous mixture of 95% oxygen and 5% carbon dioxide. Data for a control prostaglandin E2 dose response curve plotting concentration of prostaglandin E2 versus the intensity of contractions, detected isotonically, was then obtained by experimentally adjusting the dose of the prostaglandin E2 being injected into the tissue bath, in a manner known by those of skill in the art.
Solutions or suspensions containing an initial concentration (3 micromolar) of a test compound in modified Tyrode solution ("test solutions/suspensions") were then separately substituted for the control bath solution. Each test solution/suspension was then kept in constant contact with the ileum tissue, except for brief periods to drain the bath in preparation for rinsing with fresh test solution/suspension. A second prostaglandin E2 dose response curve was then generated for prostaglandin E2 in the presence of a test compound.
A control dose response curve is produced in isolated segments of guinea pig ileum mounted in an automated apparatus with six concentrations of prostaglandin E2. A solution or suspension of test compound is substituted for the control bathing solution and is incubated for thirty minutes. An additional prostaglandin E2 dose response curve is then performed in the presence of the test compound. A dose ratio is calculated from the EC50 values obtained from duplicate replications on each concentration of the test compound.
A dose ratio of EC50 doses was calculated from the results of each test in a manner known by those of skill in the art, and described above.
The dose ratios reported in Table 1 represent an average of multiple dose ratios for those compounds for which more than one dose ratio was determined. The compounds of the present invention which were tested in this assay, and for which results are presented in Table 1, correspond to the particular examples specified in Table 1.
The pA2 value (a statistical constant which is a common measure of expressing the potency of a particular drug as a competitive antagonist), rather than the dose ratio, was calculated for the test compound shown and described in Example 6 by schild plot calculations, as described by H. O. Schild, "pA, A New Scale for the Measurement of Drug Antagonism," Br. J. Pharmacol, 2, 189 (1947), and is reported in Table 1.

Structure (SMILES)	Writhing assay: number of mice out of eight or ten in which test compound produced analgesia ([1]; 30 mg/kg)	PGE2 antagonism in guinea pig ileum: Dose Ratio at 3 × 10^-6 M [2]	Writhing assay: number of mice out of eight or ten in which test compound produced analgesia [1]	ED50 ([1]; Mus musculus, PBQ i.p., read-out: Writhing assay: ED50 Dose (I.G.)) [mg/kg]
O=C1OC(c2ccncc2)c2c(Cl)ccc3c2N1Cc1ccccc1O3 (single isomer, unassigned; (-)) [Compound 5b, (-)-4-chloro-3-(4-pyridyl)-1H,3H,12H-[3,1]-benzoxazino[8,1-b,c][1, 4]benzoxazepin-1-one]	4/10	80.5	–	–
O=C1OC(c2ccccc2)c2c(Cl)ccc3c2N1Cc1ccccc1O3 (stereo not shown) [Compound 2, 4-chloro-3-phenyl-1H,3H,12H-[3,1]-benzoxazino[8,1-b,c][1,4]benzoxazepin-1-one]	–	29.2	1/10	–
O=C1OC(c2ccncc2)c2c(Cl)ccc3c2N1Cc1ccccc1O3 (stereo not shown) [Compound 5, 4-chloro-3-(4-pyridyl)-1H,3H,12H-[3,1]-benzoxazino-[8,1-b,c][1,4]benzoxazepin-1-one]	–	10.93	10/10	3.7
O=C1O[C@@H](c2ccncc2)[C@H]2c3ccccc3Oc3ccc(Cl)cc3N12 [Compound 6a, (+)-trans-6-chloro-1,13b-dihydro-1-(4-pyridyl)-3H-dibenz[b,f]oxazolo[3,4-d][1,4]oxazepin-3-one]	2/10	23.4	–	–
O=C1O[C@@H](c2ccncc2)[C@H]2c3ccccc3Oc3ccc(Cl)cc3N12 [Compound 6b, (-)-trans-6-chloro-1,13b-dihydro-1-(4-pyridyl)-3H-dibenz[b,f]oxazolo[3,4-d][1,4]oxazepin-3-one]	6/10	2.7	–	–
O=C1OC(c2ccccn2)C2c3ccccc3Oc3ccc(Cl)cc3N12 (stereo not shown) [Compound 10, 6-chloro-1,13b-dihydro-1-(2-pyridyl)-3H-dibenz-[b,f]oxazolo[3,4-d][1,4]oxazepin-3-one]	–	28.94	1/10	–
